Laboratory results from US9937145B2, “Sulfamate derivative compound for use in preventing or treating epilepsy” (Bio-Pharm Solutions Co., Ltd., priority 2013, dated 2018).
Where two headings read alike, the source gives them in different places.

Test system: male ICR mice
Test: MES test (anti-epilepsy activity), mice, oral (mMES po)
Format: in vivo
Settings: Mus musculus; for responders at 50 mg/kg: injection amount 50 mg/kg; for responders at 100 mg/kg: injection amount 100 mg/kg; for responders at 80 mg/kg: injection amount 80 mg/kg; for ED50: mice, at peak time
Protocol: Biological Experimental Example. 1: Measurement of Anti-Epilepsy Activity (MES-Test)
In the MES test (Ref., G. Villetti et al. Neuropharmacology 40(2001) 866-878), an electrical stimulus (mice: 50 mA, 60 Hz, 0.2 sec, and rats: 150 mA, 60 Hz, 0.2 sec in the test animal) supplied by an 11 A Shocker (IITC Life Science Company) was delivered through corneal electrodes. All mice or rats assigned to any electroshock at peak time were treated with each test compound sample which was dissolved in 20% tween 80 prepared by saline solvent applied orally before the test. […] Three doses of the test sample were administered orally to 9-18 animals (3-6 mice per dose) for evaluating the respective doses at which 50% of the animals were protected from seizure (ED50). The ED50 value (median effective close) was calculated by Litchfield and Wicoxon log-probit method which is a dose-response relationship. Experimental animals, male ICR mice and male SD rats, were purchased from OrientBio, Samtako, or Nara Biotech, Korea, and housed in cages (4-5 mice or 3 rats per cage) for 4-5 days. The range of mice body weight was between 19 and 25 grams and range of rats body weight was between 100 and 130 grams.
The obtained results are shown as mean±sem. The difference between the groups was statistically analyzed by ANOVA, and then further examined by Dunnett's test or Bonferroni test. If p is less than 0.05, it was determined that the difference between the groups had statistical significance.
The results of anti-epileptic activity of the sulfamate derivative compounds measured in the above Experimental Example are shown in the following Tables 4 and 5.

[1] = 3 mice, read-out: mMES(po) Protection %

With `NS(=O)(=O)OC[C@H]1OC2(CCCCC2)O[C@@H]1Cc1ccccc1Cl` [Example 152, ((2R, 3R)-3-(2-chlorobenzyl)-1,4-dioxaspiro[4,5]decan-2-yl)methyl sulfamate] the responders at 50 mg/kg [1] was 66.6%.

In the case of `CC1(C)O[C@H](COS(N)(=O)=O)[C@H](c2ccccc2Cl)O1` [Example 161, ((4R, 5S)-5-(2-chlorophenyl)-2,2-dimethyl-1,3-dioxolan-4-yl)methyl sulfamate], the responders at 100 mg/kg [1] was 100%.

For `CCC1(CC)O[C@H](CCOS(N)(=O)=O)[C@@H](Cc2ccccc2)O1` [Example 116, 2-((4R, 5R)-5-benzyl-2,2-diethyl-1,3-dioxolan-4-yl)ethyl sulfamate], the responders at 150 mg/kg (injection amount 150 mg/kg, 3 mice, read-out: mMES(po) Protection %) was 33.3%.

In the case of `CC1(C)O[C@H](COS(N)(=O)=O)[C@@H](Cc2ccccc2)O1` [Example 122, ((4R, 5R)-5-benzyl-2,2-dimethyl-1,3-dioxolan-4-yl)methyl sulfamate], the responders at 50 mg/kg [1] was 100%.

`NS(=O)(=O)OC[C@@H]1OC2(CCCC2)O[C@H]1c1ccccc1Cl` [Example 10, ((2S, 3 S)-3-(2-chlorophenyl)-1,4-dioxaspiro[4,4]nonan-2-yl)methyl sulfamate] gave a responders at 30 mg/kg (injection amount 30 mg/kg, 3 mice, read-out: mMES(po) Protection %) of 66%.

`NS(=O)(=O)OC[C@@H]1OC2(CCCCC2)O[C@H]1c1ccccc1` [Example 112, ((2S, 3S)-3-phenyl-1,4-dioxaspiro[4,5]decan-2-yl)methyl sulfamate] showed a responders at 50 mg/kg [1] of 100%.

`CCC1(CC)O[C@@H](CCOS(N)(=O)=O)[C@H](c2ccccc2)O1` [Example 132, 2-((4S, 5S)-5-phenyl-2,2-diethyl-1,3-dioxolan-4-yl)ethyl sulfamate] gave a responders at 80 mg/kg [1] of 33.3%.

For `CC1(C)O[C@@H](COS(N)(=O)=O)[C@H](c2c(Cl)cccc2Cl)O1` [Example 52, ((4S, 5S)-5-(2,6-dichlorophenyl)-2,2-dimethyl-1,3-dioxolan-4-yl)methyl sulfamate], the responders at 50 mg/kg [1] was 100%.

`Nc1ccccc1[C@@H]1OC2(CCCCC2)O[C@H]1COS(N)(=O)=O` [Example 74, ((2S, 3S)-3-(2-aminophenyl)-1,4-dioxaspiro[4,5]decan-2-yl)methyl sulfamate] gave an ED50 of 14.5 mg/kg.

`NS(=O)(=O)OCC[C@@H]1OC2(CCCCC2)O[C@H]1c1ccccc1Cl` [Example 160, 2-((2S, 3S)-3-(2-chlorophenyl)-1,4-dioxaspiro[4,5]decan-2-yl)ethyl sulfamate] gave a responders at 80 mg/kg [1] of 66.6%.

Compound `NS(=O)(=O)OCC[C@H]1OC2(CCCC2)O[C@@H]1Cc1ccccc1` [Example 118, 2-((2R, 3R)-3-benzyl-1,4-dioxaspiro[4,4]nonan-2-yl)ethyl sulfamate] has a responders at 80 mg/kg [1] of 66.6%.

In the case of `NS(=O)(=O)OC[C@@H]1OC2(CCCC2)O[C@H]1c1ccccc1` [Example 110, ((2S, 3S)-3-phenyl-1,4-dioxaspiro[4,4]nonan-2-yl)methyl sulfamate], the responders at 9 mg/kg (injection amount 9 mg/kg, 3 mice, read-out: mMES(po) Protection %) was 33.3%.

With `CC1(C)O[C@H](CCOS(N)(=O)=O)[C@@H](Cc2ccccc2Cl)O1` [Example 138, 2-((4R, 5R)-5-(2-chlorobenzyl)-2,2-dimethyl-1,3-dioxolan-4-yl)ethyl sulfamate] the responders at 80 mg/kg [1] was 33.3%.

For `CC1(C)O[C@H](c2cnc(Cl)s2)[C@@H](COS(N)(=O)=O)O1` [Example 165, ((4R, 5S)-5-(2-chlorothiazol-5-yl)-2,2-dimethyl-1,3-dioxolan-4-yl)methylsulfamate], the responders at 100 mg/kg [1] was 100%.

`CC1(C)OC(COS(N)(=O)=O)C(c2cncnc2)O1` (centres unmarked) [Example 175] was tested, and the responders at 100 mg/kg [1] was 100%.

For `CC1(C)O[C@H](c2ccccc2I)[C@@H](COS(N)(=O)=O)O1` [Example 27, ((4R, 5R)-5-(2-iodophenyl)-2,2-dimethyl-1,3-dioxolan-4-yl)methyl sulfamate], the ED50 was 27.6 mg/kg.

`CC1(C)O[C@H](COS(N)(=O)=O)[C@@H](Cc2ccccc2Cl)O1` [Example 146, ((4R, 5R)-5-(2-chlorobenzyl)-2,2-dimethyl-1,3-dioxolan-4-yl)methyl sulfamate] showed a responders at 50 mg/kg [1] of 66.6%.

`NS(=O)(=O)OC[C@H]1OC2(CCCC2)O[C@@H]1Cc1ccccc1` [Example 126, ((2R, 3R)-3-benzyl-1,4-dioxaspiro[4,4]nonan-2-yl)methyl sulfamate] gave a responders at 50 mg/kg [1] of 100%.

Work on `CC1(C)OC(COS(N)(=O)=O)C(c2cnc(Cl)nc2)O1` (centres unmarked) [Example 176, (2,2-dimethyl-5-(2-chloropyrimidin-5-yl)-1,3-dioxolan-4-yl)methylsulfamate] yielded a responders at 100 mg/kg [1] of 100%.

For `NS(=O)(=O)OC[C@H]1OC2(CCCCC2)O[C@@H]1Cc1ccccc1` [Example 128, ((2R, 3R)-3-benzyl-1,4-dioxaspiro[4,5]decan-2-yl)methyl sulfamate], the responders at 50 mg/kg [1] was 100%.

`CCC1(CC)O[C@@H](CCOS(N)(=O)=O)[C@H](c2ccccc2Cl)O1` [Example 156, 2-((4S, 5S)-5-(2-chlorophenyl)-2,2-diethyl-1,3-dioxolan-4-yl)ethyl sulfamate] showed a responders at 80 mg/kg [1] of 100%.

Work on `CCC1(CC)O[C@H](CCOS(N)(=O)=O)[C@@H](Cc2ccccc2Cl)O1` [Example 140, 2-((4R, 5R)-5-(2-chlorobenzyl)-2,2-diethyl-1,3-dioxolan-4-yl)ethyl sulfamate] yielded a responders at 50 mg/kg [1] of 33.3%.

`CC1(C)O[C@@H](COS(N)(=O)=O)[C@@H](c2ccccc2Cl)O1` [Example 162, ((4S, 5R)-5-(2-chlorophenyl)-2,2-dimethyl-1,3-dioxolan-4-yl)methyl sulfamate] was tested, and the responders at 100 mg/kg [1] was 100%.

In the case of `CCC1(CC)O[C@H](COS(N)(=O)=O)[C@@H](Cc2ccccc2Cl)O1` [Example 148, ((4R, 5R)-5-(2-chlorobenzyl)-2,2-diethyl-1,3-dioxolan-4-yl)methyl sulfamate], the responders at 50 mg/kg [1] was 33.3%.

`CC1(C)OC(COS(N)(=O)=O)C(c2cnccc2Cl)O1` (centres unmarked) [Example 174, (5-(4-chloropyridin-3-yl)-2,2-dimethyl-1,3-dioxolan-4-yl)methylsulfamate] was tested, and the responders at 100 mg/kg [1] was 100%.

`Nc1ccccc1[C@@H]1OC(c2ccccc2)O[C@H]1COS(N)(=O)=O` (stereo partly drawn) [Example 76, ((4S, 5S)-5-(2-aminophenyl)-2-phenyl-1,3-dioxolan-4-yl)methyl sulfamate] showed a responders at 50 mg/kg [1] of 66%.

For `CCC1(CC)O[C@@H](COS(N)(=O)=O)[C@H](c2ccccc2N)O1` [Example 70, ((4S, 5S)-5-(2-aminophenyl)-2,2-diethyl-1,3-dioxolan-4-yl)methyl sulfamate], the responders at 50 mg/kg [1] was 100%.

`CNc1ccccc1[C@@H]1OC(C)(C)O[C@H]1COS(=O)(=O)NC` [Example 104, ((4S, 5S)-5-(2-methylaminophenyl)-2,2-dimethyl-1,3-dioxolan-4-yl)methyl methylsulfamate] showed a responders at 50 mg/kg [1] of 66.6%.

`NS(=O)(=O)OCC[C@@H]1OC2(CCCC2)O[C@H]1c1ccccc1` [Example 134, 2-((2S, 3S)-3-phenyl-1,4-dioxaspiro[4,4]nonan-2-yl)ethyl sulfamate] was tested, and the responders at 50 mg/kg [1] was 100%.

In the case of `Cc1ccccc1[C@@H]1OC(C)(C)O[C@H]1COS(N)(=O)=O` [Example 92, ((4S, 5S)-5-(2-methylphenyl)-2,2-dimethyl-1,3-dioxolan-4-yl)methyl sulfamate], the responders at 50 mg/kg [1] was 100%.

For `NS(=O)(=O)OCC[C@@H]1OC2(CCCCC2)O[C@H]1c1ccccc1` [Example 136, 2-((2S, 3S)-3-phenyl-1,4-dioxaspiro[4,5]decan-2-yl)ethyl sulfamate], the responders at 50 mg/kg [1] was 100%.

Compound `CC1(C)OC(COS(N)(=O)=O)C(c2ccccc2Cl)O1` (mixture of isomers) [Example 3, (5-(2-chlorophenyl)-2,2-dimethyl-1,3-dioxolan-4-yl)methyl sulfamate(SS & RR mixture)] has an ED50 of 14 mg/kg.

`NS(=O)(=O)OC[C@@H]1OC2(CCCCC2)O[C@H]1c1ccccc1Cl` [Example 12, ((2S, 3S)-3-(2-chlorophenyl)-1,4-dioxaspiro[4,5]decan-2-yl)methyl sulfamate] showed a responders at 50 mg/kg (4 mice, read-out: mMES(po) Protection %) of 100%.

In the case of `NS(=O)(=O)OCC[C@H]1OC2(CCCCC2)O[C@@H]1Cc1ccccc1` [Example 120, 2-((2R, 3R)-3-benzyl-1,4-dioxaspiro[4,5]decane-2-yl)ethyl sulfamate], the responders at 80 mg/kg [1] was 66.6%.

With `CC1(C)O[C@@H](COS(N)(=O)=O)[C@H](c2ccc(Cl)cc2Cl)O1` [Example 40, ((4S, 5S)-5-(2,4-dichlorophenyl)-2,2-dimethyl-1,3-dioxolan-4-yl)methyl sulfamate] the ED50 was 49.2 mg/kg.

`NS(=O)(=O)OCC[C@H]1OC2(CCCCC2)O[C@@H]1Cc1ccccc1Cl` [Example 144, 2-((2R, 3R)-3-(2-chlorobenzyl)-1,4-dioxaspiro[4,5]decan-2-yl)ethyl sulfamate] was tested, and the responders at 100 mg/kg [1] was 33.3%.

`NS(=O)(=O)OCC[C@H]1OC2(CCCC2)O[C@@H]1Cc1ccccc1Cl` [Example 142, 2-((2R, 3R)-3-(2-chlorobenzyl)-1,4-dioxaspiro[4,4]nonan-2-yl)ethyl sulfamate] showed a responders at 80 mg/kg [1] of 33.3%.

`CC1(C)O[C@H](CCOS(N)(=O)=O)[C@@H](Cc2ccccc2)O1` [Example 114, 2-((4R, 5R)-5-benzyl-2,2-dimethyl-1,3-dioxolan-4-yl)ethyl sulfamate] gave a responders at 80 mg/kg [1] of 33.3%.
